Our source for the IC50 values is patent US11136329B2, “JAK inhibitors” (Vimalan Biosciences, Inc., priority 2019, dated 2021).

Format in all cases: biochemical
For one test, the target named is JAK1 (Homo sapiens (Human), UniProt P23458). Description: JAK/TYK2 assay (Kinase Glo luminescence), JAK1. Conditions: 7.5 nM enzyme, 2 uM ATP, 30 uM IRS-1, 1 hr. As for the experimental part: (§1) 10 mM test compound stock or 1 mM control compound stock (tofocitinib, ruxolitinib or staurosporine) in DMSO was diluted to 0.4 mM in DMSO. A 3-fold series dilution was then performed in DMSO to generate 10 different compound concentrations. The assay was carried out in 384-well white plate. 0.5 uL of 40× compound DMSO solution at different concentrations was mixed with 10 uL 2× enzyme prepared in reaction buffer (20 mM HEPES, 10 mM MgCl2, 0.01% Tween, 1 mM DTT, pH 7.5). 10 uL 2× substrate mixture prepared in reaction buffer was then added to start the reaction. A short spin was done to settle down all solutions to the bottom of the plate. Final concentrations of test compound in the reaction mixture were 10000, 3333, 1111, 370, 123, 41.2, 13.7, 4.57, 1.52and 0.51 nM. Concentrations of control compound were ten times less. Enzymatic reaction was conducted at 25° C. for 1-2 hours. 10 uL of Kinase Glo Reagents was added to stop the reaction and generate the luminescent signal which was measured using Envision. Luminescence signal was inversely related to kinase activity. […] The mixture without any compound was the positive control.
Sequence of JAK1 (P23458 whole entry, species assumed): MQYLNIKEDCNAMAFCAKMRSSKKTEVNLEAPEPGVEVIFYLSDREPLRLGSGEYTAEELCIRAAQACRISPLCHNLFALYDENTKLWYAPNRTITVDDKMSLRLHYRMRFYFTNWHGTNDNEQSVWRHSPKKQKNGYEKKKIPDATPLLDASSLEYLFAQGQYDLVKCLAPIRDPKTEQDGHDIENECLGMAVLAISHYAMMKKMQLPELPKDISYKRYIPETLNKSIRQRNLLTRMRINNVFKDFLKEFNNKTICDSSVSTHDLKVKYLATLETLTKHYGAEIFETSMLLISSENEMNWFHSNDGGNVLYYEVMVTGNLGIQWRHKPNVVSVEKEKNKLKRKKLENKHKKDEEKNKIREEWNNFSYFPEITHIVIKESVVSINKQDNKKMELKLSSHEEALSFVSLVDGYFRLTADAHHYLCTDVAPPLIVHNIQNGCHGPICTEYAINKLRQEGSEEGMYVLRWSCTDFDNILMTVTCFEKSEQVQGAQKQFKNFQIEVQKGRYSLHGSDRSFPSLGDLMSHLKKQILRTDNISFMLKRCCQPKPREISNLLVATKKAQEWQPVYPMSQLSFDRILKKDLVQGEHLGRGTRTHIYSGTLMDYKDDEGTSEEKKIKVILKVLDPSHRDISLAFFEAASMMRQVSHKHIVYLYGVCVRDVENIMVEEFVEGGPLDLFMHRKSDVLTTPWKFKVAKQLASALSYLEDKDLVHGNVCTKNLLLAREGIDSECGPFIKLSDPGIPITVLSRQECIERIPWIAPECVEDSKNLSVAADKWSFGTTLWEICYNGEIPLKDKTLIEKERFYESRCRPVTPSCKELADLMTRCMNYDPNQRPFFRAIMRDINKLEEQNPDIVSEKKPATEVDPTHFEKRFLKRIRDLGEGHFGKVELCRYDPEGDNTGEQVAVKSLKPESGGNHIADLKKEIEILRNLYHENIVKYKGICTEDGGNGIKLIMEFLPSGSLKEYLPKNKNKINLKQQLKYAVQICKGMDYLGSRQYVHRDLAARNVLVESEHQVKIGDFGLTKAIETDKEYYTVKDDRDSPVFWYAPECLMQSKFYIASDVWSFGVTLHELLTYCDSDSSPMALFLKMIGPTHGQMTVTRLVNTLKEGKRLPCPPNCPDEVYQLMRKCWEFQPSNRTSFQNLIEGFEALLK
In general terms: In Kinase-Glo more light means more ATP remaining.

The target of the next test is JAK2 (Homo sapiens (Human), UniProt O60674). The test can be described thus: JAK/TYK2 assay (Kinase Glo luminescence), JAK2. As to conditions: 0.8 nM enzyme, 2 uM ATP, 4 uM pEY, 1 hr. How it is done:
as §1

Another test addresses JAK3 (Homo sapiens (Human), UniProt P52333). Description: JAK/TYK2 assay (Kinase Glo luminescence), JAK3. As to conditions: 1.5 nM enzyme, 2 uM ATP, 4 uM pEY, 1 hr. As for the experimental part:
as §1

The target in a further test is TYK2 (Homo sapiens (Human), UniProt P29597). Description: JAK/TYK2 assay (Kinase Glo luminescence), TYK2. Conditions: 9 nM enzyme, 2 uM ATP, 30 uM IRS-1, 1 hr. How it is done:
as §1

Where only a bound is given, the exact number is not on record here.

Sequence of JAK3 (P52333 whole entry, species assumed): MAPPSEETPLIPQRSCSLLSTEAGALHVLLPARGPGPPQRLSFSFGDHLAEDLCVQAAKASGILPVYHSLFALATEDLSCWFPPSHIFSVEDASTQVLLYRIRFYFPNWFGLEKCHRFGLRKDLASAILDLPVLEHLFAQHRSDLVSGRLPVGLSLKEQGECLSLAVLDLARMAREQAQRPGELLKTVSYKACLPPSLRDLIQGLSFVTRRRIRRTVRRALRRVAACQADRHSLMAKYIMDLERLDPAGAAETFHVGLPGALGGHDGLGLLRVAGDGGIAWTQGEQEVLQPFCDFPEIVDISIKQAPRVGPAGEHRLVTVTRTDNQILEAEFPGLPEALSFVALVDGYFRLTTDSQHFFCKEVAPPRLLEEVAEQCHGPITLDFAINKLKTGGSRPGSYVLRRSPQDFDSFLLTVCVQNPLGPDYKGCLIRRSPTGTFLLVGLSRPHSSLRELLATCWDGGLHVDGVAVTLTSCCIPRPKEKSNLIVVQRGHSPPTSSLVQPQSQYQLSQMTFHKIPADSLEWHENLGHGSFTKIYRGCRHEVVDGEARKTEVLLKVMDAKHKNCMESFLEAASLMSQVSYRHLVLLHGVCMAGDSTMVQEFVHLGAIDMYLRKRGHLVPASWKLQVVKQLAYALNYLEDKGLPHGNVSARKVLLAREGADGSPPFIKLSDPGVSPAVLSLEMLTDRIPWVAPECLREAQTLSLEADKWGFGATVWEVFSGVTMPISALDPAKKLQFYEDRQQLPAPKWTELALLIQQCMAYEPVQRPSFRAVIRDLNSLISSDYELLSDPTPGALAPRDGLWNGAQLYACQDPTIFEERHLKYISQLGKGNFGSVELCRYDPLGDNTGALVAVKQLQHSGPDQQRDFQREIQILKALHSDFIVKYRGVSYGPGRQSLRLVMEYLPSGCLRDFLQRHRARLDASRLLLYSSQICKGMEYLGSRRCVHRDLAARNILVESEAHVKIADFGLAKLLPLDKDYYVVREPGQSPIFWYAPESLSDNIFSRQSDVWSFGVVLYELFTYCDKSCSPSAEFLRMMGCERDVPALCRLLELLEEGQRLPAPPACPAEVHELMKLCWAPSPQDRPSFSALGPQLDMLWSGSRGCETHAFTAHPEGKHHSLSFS
Sequence of JAK2 (O60674 whole entry, species assumed): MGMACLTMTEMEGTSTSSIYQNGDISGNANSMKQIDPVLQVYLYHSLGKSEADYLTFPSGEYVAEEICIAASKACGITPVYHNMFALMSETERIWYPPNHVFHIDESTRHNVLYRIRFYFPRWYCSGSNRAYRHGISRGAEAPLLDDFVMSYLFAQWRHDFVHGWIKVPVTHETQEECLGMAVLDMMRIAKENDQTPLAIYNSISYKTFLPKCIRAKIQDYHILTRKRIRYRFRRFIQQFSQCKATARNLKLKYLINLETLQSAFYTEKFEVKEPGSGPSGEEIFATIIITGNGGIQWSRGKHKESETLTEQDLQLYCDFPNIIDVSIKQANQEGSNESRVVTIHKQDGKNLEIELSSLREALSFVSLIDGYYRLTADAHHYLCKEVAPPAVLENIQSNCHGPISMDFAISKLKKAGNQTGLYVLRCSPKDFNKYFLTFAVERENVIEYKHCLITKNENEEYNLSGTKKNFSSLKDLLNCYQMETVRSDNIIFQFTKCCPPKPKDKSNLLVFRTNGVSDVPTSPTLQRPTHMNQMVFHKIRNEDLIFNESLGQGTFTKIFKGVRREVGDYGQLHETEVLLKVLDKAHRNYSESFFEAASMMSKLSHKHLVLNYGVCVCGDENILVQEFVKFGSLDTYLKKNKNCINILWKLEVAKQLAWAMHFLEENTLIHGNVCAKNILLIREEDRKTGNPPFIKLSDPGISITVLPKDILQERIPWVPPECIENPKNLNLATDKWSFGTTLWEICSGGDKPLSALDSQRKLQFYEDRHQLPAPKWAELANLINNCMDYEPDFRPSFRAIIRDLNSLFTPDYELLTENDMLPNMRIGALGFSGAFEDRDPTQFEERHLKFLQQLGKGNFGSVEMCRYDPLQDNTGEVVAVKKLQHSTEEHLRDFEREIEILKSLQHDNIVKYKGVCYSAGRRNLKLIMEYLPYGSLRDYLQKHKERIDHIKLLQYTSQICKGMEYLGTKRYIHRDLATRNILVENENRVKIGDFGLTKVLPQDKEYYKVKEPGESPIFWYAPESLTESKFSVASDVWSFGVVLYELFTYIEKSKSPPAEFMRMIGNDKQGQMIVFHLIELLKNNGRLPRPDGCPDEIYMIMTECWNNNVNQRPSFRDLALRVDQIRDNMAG
Sequence of TYK2 (P29597 whole entry, species assumed): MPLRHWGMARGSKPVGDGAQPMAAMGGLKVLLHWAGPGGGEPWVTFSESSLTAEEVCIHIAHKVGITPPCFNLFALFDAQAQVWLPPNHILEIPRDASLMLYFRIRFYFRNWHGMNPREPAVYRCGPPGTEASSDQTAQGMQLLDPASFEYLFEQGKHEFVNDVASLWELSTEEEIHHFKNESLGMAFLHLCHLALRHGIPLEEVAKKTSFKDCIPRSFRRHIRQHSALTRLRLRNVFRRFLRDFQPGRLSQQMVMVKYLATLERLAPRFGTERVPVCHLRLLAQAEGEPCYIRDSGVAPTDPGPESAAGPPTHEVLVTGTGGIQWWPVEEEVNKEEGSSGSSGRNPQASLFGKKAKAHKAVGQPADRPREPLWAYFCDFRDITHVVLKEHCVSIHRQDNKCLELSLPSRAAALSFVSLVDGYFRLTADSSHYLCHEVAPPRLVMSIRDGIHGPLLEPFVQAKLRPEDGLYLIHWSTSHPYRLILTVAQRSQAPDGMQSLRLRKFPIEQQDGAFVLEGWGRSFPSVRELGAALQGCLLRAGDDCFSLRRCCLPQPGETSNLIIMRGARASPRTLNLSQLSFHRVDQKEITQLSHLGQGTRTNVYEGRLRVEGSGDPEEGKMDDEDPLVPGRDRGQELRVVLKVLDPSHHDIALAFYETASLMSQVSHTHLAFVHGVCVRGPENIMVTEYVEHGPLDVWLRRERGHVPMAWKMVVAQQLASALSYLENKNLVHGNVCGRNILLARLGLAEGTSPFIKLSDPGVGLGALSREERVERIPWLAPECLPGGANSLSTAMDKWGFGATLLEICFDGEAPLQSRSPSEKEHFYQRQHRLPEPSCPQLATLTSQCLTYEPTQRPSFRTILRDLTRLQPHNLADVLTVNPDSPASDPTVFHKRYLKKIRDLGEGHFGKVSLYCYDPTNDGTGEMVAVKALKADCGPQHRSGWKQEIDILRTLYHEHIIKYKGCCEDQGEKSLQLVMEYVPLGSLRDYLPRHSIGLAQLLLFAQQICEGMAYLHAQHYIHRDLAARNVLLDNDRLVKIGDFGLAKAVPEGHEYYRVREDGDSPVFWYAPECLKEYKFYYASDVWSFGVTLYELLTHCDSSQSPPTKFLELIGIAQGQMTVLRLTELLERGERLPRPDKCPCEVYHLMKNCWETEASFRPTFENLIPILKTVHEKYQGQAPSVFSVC

One may read the IC50 as the point on the concentration scale where inhibition reaches its midpoint. A higher IC50 goes with lower potency. For the molecule `CC[C@H](Cn1ccc2cnc(Nc3cnn(C4CCOC4=O)c3)nc21)C(C)C` (stereo partly drawn) [Compound 82, 3-(4-((7-((S)-2-ethyl-3-methylbutyl)-7H-pyrrolo[2,3-d]pyrimidin-2-yl)amino)-1H-pyrazol-1-yl)dihydrofuran-2(3H)-one], the half-inhibitory concentration (IC50) at JAK1, on JAK2, against JAK3 and at TYK2 was less than 100 nM each time.

For `CCC(CC)Cn1ccc2cnc(Nc3cnn(CC(=O)OCCO)c3)nc21` [Compound 90, 2-hydroxyethyl 2-(4-((7-(2-ethylbutyl)-7H-pyrrolo[2,3-d]pyrimidin-2-yl)amino)-1H-pyrazol-1-yl)acetate], the 50% inhibitory concentration (IC50) against JAK1, against JAK2, at JAK3 and against TYK2 was less than 100 nM throughout.

For the molecule `CCOC(=O)CCn1cc(Nc2ncc3ccn(C[C@H]4CC[C@H](O)CC4)c3n2)cn1` [Compound 121, ethyl 3-(4-((7-(((1r,4r)-4-hydroxycyclohexyl)methyl)-7H-pyrrolo[2,3-d]pyrimidin-2-yl)amino)-1H-pyrazol-1-yl)propanoate], the IC50 against JAK1, at JAK2, on JAK3 and on TYK2 was less than 100 nM throughout.

On to `CCC(Cn1ccc2cnc(Nc3cnn(CC(=O)OCCC#N)c3)nc21)C(C)C` (stereo not drawn) [Compound 92, 2-cyanoethyl 2-(4-((7-(2-ethyl-3-methylbutyl)-7H-pyrrolo[2,3-d]pyrimidin-2-yl)amino)-1H-pyrazol-1-yl)acetate], for which the 50% inhibitory concentration (IC50) at JAK1, on JAK2, at JAK3 and at TYK2 was less than 100 nM in each case.

For the molecule `CCOC(=O)CCn1cc(Nc2ncc3ccn(C[C@@H](CC)C(C)C)c3n2)cn1` [Compound 119, ethyl (S)-3-(4-((7-(2-ethyl-3-methylbutyl)-7H-pyrrolo[2,3-d]pyrimidin-2-yl)amino)-1H-pyrazol-1-yl)propanoate], the concentration for half-maximal inhibition (IC50) at JAK1, at JAK2, on JAK3 and against TYK2 was less than 100 nM throughout.

With `CN1CC[C@@H](OC(=O)Cn2cc(Nc3ncc4ccn(C[C@H]5CC[C@H](O)CC5)c4n3)cn2)C1` [Compound 146, (R)-1-methylpyrrolidin-3-yl 2-(4-((7-(((1r,4r)-4-hydroxycyclohexyl)methyl)-7H-pyrrolo[2,3-d]pyrimidin-2-yl)amino)-1H-pyrazol-1-yl)acetate], the IC50 against JAK1, on JAK2, at JAK3 and against TYK2 was less than 100 nM each time.

With `CCC(Cn1ccc2cnc(Nc3cnn(CC(=O)OCC(O)CO)c3)nc21)C(C)C` (stereo not drawn) [Compound 111, 2,3-dihydroxypropyl 2-(4-((7-(2-ethyl-3-methylbutyl)-7H-pyrrolo[2,3-d]pyrimidin-2-yl)amino)-1H-pyrazol-1-yl)acetate], the IC50 against JAK1, against JAK2, against JAK3 and against TYK2 was less than 100 nM in each case.

With `CC[C@H](Cn1ccc2cnc(Nc3cnn([C@H]4CCOC4=O)c3)nc21)C(C)C` [Compound 82B, (S)-3-(4-((7-((S)-2-ethyl-3-methylbutyl)-7H-pyrrolo[2,3-d]pyrimidin-2-yl)amino)-1H-pyrazol-1-yl)dihydrofuran-2(3H)-one], the 50% inhibitory concentration (IC50) on JAK1, on JAK2, on JAK3 and against TYK2 was less than 100 nM each time.

Consider `CCC(CC)Cn1ccc2cnc(Nc3cnn(CC(=O)OC(C)C)c3)nc21` [Compound 93, isopropyl 2-(4-((7-(2-ethylbutyl)-7H-pyrrolo[2,3-d]pyrimidin-2-yl)amino)-1H-pyrazol-1-yl)acetate], for which the 50% inhibitory concentration (IC50) against JAK1, against JAK2, on JAK3 and at TYK2 was less than 100 nM each time.

With `CCC(Cn1ccc2cnc(Nc3cnn(CC(=O)OC(C)C)c3)nc21)CC(F)(F)F` (stereo not drawn) [Compound 101, isopropyl 2-(4-((7-(2-ethyl-4,4,4-trifluorobutyl)-7H-pyrrolo[2,3-d]pyrimidin-2-yl)amino)-1H-pyrazol-1-yl)acetate], the IC50 at JAK1, at JAK2, against JAK3 and at TYK2 was less than 100 nM in each case.

`CCOC(=O)Cn1cc(Nc2ncc3ccn(CCC#N)c3n2)cn1` [Compound 24, ethyl 2-(4-((7-(2-cyanoethyl)-7H-pyrrolo[2,3-d]pyrimidin-2-yl)amino)-1H-pyrazol-1-yl)acetate]: the half-inhibitory concentration (IC50) against JAK1 was in the range of 1000 to 10000 nM; at JAK2 it was 100 to 1000 nM; against JAK3, 100 to 1000 nM; against TYK2, 100 to 1000 nM.

For `CCOC(=O)Cn1cc(Nc2ncc3ccn(CC(CC)CO)c3n2)cn1` (stereo not drawn) [Compound 65, ethyl 2-(4-((7-(2-(hydroxymethyl)butyl)-7H-pyrrolo[2,3-d]pyrimidin-2-yl)amino)-1H-pyrazol-1-yl)acetate], the concentration for half-maximal inhibition (IC50) against JAK1, against JAK2, at JAK3 and against TYK2 was less than 100 nM each time.

`O=C(O)Cn1cc(Nc2ncc3ccn(CC4CCCC(F)(F)C4)c3n2)cn1` (stereo not drawn) [Compound 38, 2-(4-((7-((3,3-difluorocyclohexyl)methyl)-7H-pyrrolo[2,3-d]pyrimidin-2-yl)amino)-1H-pyrazol-1-yl)acetic acid]: the half-maximal inhibitory concentration (IC50) on JAK1, against JAK2, against JAK3 and against TYK2 was less than 100 nM in each case.

`CC#CCn1ccc2cnc(Nc3cnn(CC(=O)OCC)c3)nc21` [Compound 23, ethyl 2-(4-((7-(but-2-yn-1-yl)-7H-pyrrolo[2,3-d]pyrimidin-2-yl)amino)-1H-pyrazol-1-yl)acetate]: the concentration for half-maximal inhibition (IC50) at JAK1 is 100 to 1000 nM; against JAK2, 100 to 1000 nM; against JAK3 it was less than 100 nM; at TYK2, 100 to 1000 nM.

As for `CCOC(=O)Cn1cc(Nc2ncc3ccn(C[C@@H]4CCC[C@@H](OC)C4)c3n2)cn1` [Compound 131, ethyl 2-(4-((7-(((1R,3R)-3-methoxycyclohexyl)methyl)-7H-pyrrolo[2,3-d]pyrimidin-2-yl)amino)-1H-pyrazol-1-yl)acetate], the IC50 was 100 to 1000 nM against JAK1, less than 100 nM against JAK2, less than 100 nM at JAK3 and less than 100 nM at TYK2.

For `CCC(CC)Cn1ccc2cnc(Nc3cnn(CC(=O)O)c3)nc21` [Compound 9, 2-(4-((7-(2-ethylbutyl)-7H-pyrrolo[2,3-d]pyrimidin-2-yl)amino)-1H-pyrazol-1-yl)acetic acid], the half-inhibitory concentration (IC50) against JAK1, at JAK2, at JAK3 and against TYK2 was less than 100 nM in each case.

On to `CCOC(=O)Cn1cc(Nc2ncc3ccn(CC(CC)C(C)C)c3n2)cn1` (stereo not drawn) [Compound 49, ethyl 2-(4-((7-(2-ethyl-3-methylbutyl)-7H-pyrrolo[2,3-d]pyrimidin-2-yl)amino)-1H-pyrazol-1-yl)acetate], for which the IC50 on JAK1, on JAK2, against JAK3 and at TYK2 was less than 100 nM throughout.

For `CCC(Cn1ccc2cnc(Nc3cnn(CC(=O)OCC(C)C)c3)nc21)C(C)C` (stereo not drawn) [Compound 108, isobutyl 2-(4-((7-(2-ethyl-3-methylbutyl)-7H-pyrrolo[2,3-d]pyrimidin-2-yl)amino)-1H-pyrazol-1-yl)acetate], the IC50 on JAK1, against JAK2, at JAK3 and against TYK2 was less than 100 nM each time.

Turning to `CCC(CC)Cn1ccc2cnc(Nc3cnn(CC(=O)OC(C)C(C)O)c3)nc21` (stereo not drawn) [Compound 113, 3-hydroxybutan-2-yl 2-(4-((7-(2-ethylbutyl)-7H-pyrrolo[2,3-d]pyrimidin-2-yl)amino)-1H-pyrazol-1-yl)acetate], the 50% inhibitory concentration (IC50) at JAK1, at JAK2, on JAK3 and at TYK2 was less than 100 nM each time.

With `CCOC(=O)Cn1cc(Nc2ncc3ccn(C[C@H]4CC[C@@H](OC)CC4)c3n2)cn1` [Compound 128, ethyl 2-(4-((7-(((1s,4s)-4-methoxycyclohexyl)methyl)-7H-pyrrolo[2,3-d]pyrimidin-2-yl)amino)-1H-pyrazol-1-yl)acetate], the IC50 lay within 1000 to 10000 nM against JAK1, 100 to 1000 nM at JAK2, 100 to 1000 nM at JAK3 and 100 to 1000 nM on TYK2.

Regarding `CC[C@H](Cn1ccc2cnc(Nc3cnn(CC(=O)OC(C)C)c3)nc21)C(C)C` [Compound 134, isopropyl (S)-2-(4-((7-(2-ethyl-3-methylbutyl)-7H-pyrrolo[2,3-d]pyrimidin-2-yl)amino)-1H-pyrazol-1-yl)acetate], the IC50 against JAK1, against JAK2, on JAK3 and against TYK2 was less than 100 nM each time.
